From ChEMBL document CHEMBL4507268 (2021)

Key:
[1] = test system: Tyrosine-protein kinase ABL1 (Homo sapiens), P00519 [F317L]; details: Compound concentration 1000.0 nM
[2] = molecular target: Calcium/calmodulin-dependent protein kinase type II subunit gamma (Homo sapiens) (UniProt Q13555); details: Compound concentration 1000.0 nM
[3] = molecular target: Cyclin-dependent kinase-like 3 (Homo sapiens) (UniProt Q8IVW4); details: Compound concentration 1000.0 nM
[4] = molecular target: T1, Serine/threonine-protein kinase DCLK3 (Homo sapiens) (UniProt Q9C098); details: Compound concentration 1000.0 nM
T1 sequence (whole entry): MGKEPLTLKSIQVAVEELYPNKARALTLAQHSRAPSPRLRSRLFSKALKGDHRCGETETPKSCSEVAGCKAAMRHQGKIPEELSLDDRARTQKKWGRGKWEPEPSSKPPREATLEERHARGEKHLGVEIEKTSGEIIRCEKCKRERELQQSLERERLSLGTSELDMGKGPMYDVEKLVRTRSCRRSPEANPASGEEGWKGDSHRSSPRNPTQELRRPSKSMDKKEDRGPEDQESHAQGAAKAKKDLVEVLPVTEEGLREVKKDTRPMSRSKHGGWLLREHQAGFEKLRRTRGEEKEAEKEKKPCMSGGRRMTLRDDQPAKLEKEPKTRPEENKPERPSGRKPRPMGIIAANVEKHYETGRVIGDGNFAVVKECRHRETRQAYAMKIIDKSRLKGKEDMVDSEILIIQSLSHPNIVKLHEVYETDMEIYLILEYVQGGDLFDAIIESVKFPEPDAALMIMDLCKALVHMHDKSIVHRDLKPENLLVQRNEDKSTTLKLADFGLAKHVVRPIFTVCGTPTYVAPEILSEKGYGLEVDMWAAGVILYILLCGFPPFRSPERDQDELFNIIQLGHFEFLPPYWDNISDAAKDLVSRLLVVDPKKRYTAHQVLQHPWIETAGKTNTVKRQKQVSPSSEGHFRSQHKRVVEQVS

[5] = molecular target: Mitogen-activated protein kinase 9 (Homo sapiens) (UniProt P45984); details: Compound concentration 1000.0 nM
Sequence of Mitogen-activated protein kinase 9 (Homo sapiens) (P45984 whole entry, looked up): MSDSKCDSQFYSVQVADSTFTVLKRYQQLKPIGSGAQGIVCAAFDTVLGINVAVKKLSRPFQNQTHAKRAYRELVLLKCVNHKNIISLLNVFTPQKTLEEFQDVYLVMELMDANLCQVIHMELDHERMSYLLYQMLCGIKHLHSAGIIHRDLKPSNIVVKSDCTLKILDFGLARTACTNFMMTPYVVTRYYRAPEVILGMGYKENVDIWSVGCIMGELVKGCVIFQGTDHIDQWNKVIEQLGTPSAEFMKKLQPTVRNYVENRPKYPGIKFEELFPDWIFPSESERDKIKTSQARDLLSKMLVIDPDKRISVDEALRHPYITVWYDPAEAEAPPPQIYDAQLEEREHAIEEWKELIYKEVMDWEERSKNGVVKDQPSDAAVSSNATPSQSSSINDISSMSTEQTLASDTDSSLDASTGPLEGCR

[6] = molecular target: T2, Dual specificity mitogen-activated protein kinase kinase 3 (Homo sapiens) (UniProt P46734); details: Compound concentration 1000.0 nM
T2 sequence (whole entry): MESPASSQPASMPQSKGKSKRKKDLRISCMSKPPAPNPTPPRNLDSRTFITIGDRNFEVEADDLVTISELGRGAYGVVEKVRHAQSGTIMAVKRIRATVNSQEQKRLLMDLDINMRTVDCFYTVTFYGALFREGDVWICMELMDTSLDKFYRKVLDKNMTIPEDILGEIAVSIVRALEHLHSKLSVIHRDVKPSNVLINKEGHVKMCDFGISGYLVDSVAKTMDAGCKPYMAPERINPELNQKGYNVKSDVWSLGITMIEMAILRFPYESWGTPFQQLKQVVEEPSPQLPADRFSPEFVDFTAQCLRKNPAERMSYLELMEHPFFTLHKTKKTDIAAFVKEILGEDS

[7] = molecular target: T3, Serine/threonine-protein kinase Nek2 (Homo sapiens) (UniProt P51955); details: Compound concentration 1000.0 nM
T3 sequence (whole entry): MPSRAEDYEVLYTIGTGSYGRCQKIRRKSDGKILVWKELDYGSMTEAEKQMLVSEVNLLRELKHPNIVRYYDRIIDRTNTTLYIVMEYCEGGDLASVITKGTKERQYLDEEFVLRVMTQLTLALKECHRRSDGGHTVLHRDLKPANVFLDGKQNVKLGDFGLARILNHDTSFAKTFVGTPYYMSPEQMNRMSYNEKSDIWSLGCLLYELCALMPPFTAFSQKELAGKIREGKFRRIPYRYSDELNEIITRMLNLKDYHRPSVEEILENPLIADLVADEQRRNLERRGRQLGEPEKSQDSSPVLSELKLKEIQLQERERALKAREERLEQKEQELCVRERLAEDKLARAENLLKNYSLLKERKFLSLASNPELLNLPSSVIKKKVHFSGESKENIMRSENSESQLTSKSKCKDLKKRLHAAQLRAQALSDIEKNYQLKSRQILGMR

[8] = molecular target: T4, Serine/threonine-protein kinase Sgk2 (Homo sapiens) (UniProt Q9HBY8); details: Compound concentration 1000.0 nM
T4 sequence (whole entry): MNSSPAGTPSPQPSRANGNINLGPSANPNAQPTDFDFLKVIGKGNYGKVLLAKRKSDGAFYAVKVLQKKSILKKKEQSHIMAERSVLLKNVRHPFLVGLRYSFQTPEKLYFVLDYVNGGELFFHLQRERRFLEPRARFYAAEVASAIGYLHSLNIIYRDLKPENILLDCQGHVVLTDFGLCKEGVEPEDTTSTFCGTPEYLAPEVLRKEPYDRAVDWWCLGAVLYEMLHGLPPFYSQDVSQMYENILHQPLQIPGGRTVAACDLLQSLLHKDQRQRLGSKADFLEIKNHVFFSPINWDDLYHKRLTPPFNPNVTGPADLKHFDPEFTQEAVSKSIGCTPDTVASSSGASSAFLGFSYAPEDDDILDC

[9] = molecular target: SRSF protein kinase 3 (Homo sapiens) (UniProt Q9UPE1); details: Compound concentration 1000.0 nM
Sequence of SRSF protein kinase 3 (Homo sapiens) (Q9UPE1 whole entry): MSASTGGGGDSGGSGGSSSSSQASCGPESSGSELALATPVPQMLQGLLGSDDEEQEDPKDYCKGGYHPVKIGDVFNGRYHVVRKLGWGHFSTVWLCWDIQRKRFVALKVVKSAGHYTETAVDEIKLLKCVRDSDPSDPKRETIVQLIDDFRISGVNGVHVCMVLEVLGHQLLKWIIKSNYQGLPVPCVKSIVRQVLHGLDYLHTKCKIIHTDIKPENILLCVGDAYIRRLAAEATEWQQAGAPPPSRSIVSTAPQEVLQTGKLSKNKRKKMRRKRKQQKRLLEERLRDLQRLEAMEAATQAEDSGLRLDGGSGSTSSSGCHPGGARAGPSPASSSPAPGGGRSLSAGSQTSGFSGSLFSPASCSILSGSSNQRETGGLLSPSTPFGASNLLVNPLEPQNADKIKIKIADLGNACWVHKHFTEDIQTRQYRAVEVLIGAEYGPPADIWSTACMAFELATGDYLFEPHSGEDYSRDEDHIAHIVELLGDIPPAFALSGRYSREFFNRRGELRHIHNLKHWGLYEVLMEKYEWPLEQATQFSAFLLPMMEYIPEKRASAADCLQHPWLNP

[10] = molecular target: 5-hydroxytryptamine receptor 6 (Homo sapiens) (UniProt P50406); details: Compound concentration 10.0 uM
Sequence of 5-hydroxytryptamine receptor 6 (Homo sapiens) (P50406 whole entry): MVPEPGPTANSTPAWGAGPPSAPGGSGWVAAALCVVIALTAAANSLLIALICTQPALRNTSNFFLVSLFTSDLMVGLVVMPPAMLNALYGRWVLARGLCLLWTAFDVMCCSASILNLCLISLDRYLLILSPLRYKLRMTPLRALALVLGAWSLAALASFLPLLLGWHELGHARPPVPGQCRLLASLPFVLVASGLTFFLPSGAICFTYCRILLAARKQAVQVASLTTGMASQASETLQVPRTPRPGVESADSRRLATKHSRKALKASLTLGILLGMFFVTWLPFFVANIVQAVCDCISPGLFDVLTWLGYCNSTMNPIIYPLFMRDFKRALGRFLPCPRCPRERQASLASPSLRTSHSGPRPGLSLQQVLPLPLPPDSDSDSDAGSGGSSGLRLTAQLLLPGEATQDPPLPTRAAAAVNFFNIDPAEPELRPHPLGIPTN

Sequence of Tyrosine-protein kinase ABL1 (Homo sapiens), P00519 [F317L] (P00519 whole entry F317L): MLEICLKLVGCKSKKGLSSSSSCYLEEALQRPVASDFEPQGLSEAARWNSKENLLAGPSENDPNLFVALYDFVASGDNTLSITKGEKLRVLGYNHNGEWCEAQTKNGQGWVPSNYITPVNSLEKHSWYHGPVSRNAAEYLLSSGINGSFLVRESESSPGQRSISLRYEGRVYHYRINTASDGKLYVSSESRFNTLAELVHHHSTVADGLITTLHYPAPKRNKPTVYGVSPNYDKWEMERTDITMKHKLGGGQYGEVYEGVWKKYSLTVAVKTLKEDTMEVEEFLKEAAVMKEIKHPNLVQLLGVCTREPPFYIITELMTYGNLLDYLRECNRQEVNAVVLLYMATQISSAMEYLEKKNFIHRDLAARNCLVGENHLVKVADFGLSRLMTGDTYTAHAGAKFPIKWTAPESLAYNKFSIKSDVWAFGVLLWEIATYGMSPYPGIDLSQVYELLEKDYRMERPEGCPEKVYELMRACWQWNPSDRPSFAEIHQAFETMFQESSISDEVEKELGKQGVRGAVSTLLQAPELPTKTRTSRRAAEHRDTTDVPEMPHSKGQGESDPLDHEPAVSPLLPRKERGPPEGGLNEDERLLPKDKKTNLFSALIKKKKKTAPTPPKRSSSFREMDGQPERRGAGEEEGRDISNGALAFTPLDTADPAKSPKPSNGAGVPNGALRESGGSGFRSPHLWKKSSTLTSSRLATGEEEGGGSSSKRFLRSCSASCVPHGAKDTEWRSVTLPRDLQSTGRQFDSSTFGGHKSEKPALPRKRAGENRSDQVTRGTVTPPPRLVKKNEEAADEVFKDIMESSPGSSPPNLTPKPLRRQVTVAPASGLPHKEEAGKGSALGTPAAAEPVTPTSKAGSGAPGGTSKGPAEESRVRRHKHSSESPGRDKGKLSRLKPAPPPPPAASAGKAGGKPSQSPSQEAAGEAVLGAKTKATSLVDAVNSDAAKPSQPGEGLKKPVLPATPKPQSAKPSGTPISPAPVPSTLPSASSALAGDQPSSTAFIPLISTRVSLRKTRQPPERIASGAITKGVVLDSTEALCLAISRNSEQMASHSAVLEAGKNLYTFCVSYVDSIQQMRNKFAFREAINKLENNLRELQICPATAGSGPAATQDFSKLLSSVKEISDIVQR
Sequence of Calcium/calmodulin-dependent protein kinase type II subunit gamma (Homo sapiens) (Q13555 whole entry): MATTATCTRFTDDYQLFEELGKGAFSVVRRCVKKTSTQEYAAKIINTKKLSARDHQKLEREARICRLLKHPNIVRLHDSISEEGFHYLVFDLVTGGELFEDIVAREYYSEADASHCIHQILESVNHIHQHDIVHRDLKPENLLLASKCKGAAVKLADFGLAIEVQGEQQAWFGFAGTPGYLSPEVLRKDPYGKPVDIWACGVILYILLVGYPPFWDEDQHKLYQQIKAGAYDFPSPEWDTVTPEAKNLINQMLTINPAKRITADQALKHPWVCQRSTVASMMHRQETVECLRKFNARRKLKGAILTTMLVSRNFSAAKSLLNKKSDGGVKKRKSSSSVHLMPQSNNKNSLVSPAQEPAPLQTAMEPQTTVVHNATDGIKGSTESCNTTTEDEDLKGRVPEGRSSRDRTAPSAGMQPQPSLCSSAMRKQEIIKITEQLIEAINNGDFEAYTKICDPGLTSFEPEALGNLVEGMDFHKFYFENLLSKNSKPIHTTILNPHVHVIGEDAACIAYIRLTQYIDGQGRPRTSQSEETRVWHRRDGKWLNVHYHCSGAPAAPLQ
Sequence of Cyclin-dependent kinase-like 3 (Homo sapiens) (Q8IVW4 whole entry, looked up): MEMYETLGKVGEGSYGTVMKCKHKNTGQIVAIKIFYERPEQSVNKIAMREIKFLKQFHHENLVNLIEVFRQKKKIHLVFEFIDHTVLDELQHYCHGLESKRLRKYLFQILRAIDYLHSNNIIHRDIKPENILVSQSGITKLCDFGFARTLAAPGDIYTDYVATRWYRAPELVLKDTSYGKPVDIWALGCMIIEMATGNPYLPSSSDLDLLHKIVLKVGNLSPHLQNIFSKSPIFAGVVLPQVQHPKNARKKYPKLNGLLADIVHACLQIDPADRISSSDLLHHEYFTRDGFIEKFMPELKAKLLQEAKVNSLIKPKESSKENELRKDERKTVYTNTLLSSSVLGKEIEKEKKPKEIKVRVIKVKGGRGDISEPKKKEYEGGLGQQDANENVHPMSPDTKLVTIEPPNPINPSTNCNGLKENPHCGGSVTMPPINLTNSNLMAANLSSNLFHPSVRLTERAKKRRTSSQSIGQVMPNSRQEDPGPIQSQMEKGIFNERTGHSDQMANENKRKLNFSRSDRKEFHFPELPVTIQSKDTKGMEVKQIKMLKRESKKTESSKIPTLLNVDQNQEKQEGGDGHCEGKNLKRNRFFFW

CN1CCN(c2cnc3c(C4CCN(C(=O)c5ccc(OC(F)(F)F)cc5N)CC4)ncnc3c2)CC1 [BAY-885]
inactive: residual activity [1] 100% | residual activity [2] 100% | residual activity [3] 92% | residual activity [4] 91% | residual activity [5] 100% | residual activity [6] 94% | residual activity [7] 100% | residual activity [8] 92% | residual activity [9] 100% | inhibition [10] -4.69%

Cc1nc(C2CCN(C(=O)c3ccc(OC(F)(F)F)cc3N)CC2)c2ncc(N3CCN(C)CC3)cc2n1 [BAY-693]
inactive: residual activity [1] 97% | residual activity [2] 100% | residual activity [3] 92% | residual activity [4] 98% | residual activity [5] 100% | residual activity [6] 98% | residual activity [7] 100% | residual activity [8] 94% | residual activity [9] 100% | inhibition [10] -1.38%
